In patent US10308658B2, “Salt of EGFR inhibitor, crystalline form and uses thereof” (SUNSHINE LAKE PHARMA CO., LTD., priority 2015, dated 2019):

Legend:
EGFR = EGFR (Homo sapiens, UniProt P00533); details: as disclosed in CN 103102344 A; cited from earlier work
[1] = Pharmacokinetic assay in beagle dogs; assay type: in vivo; details: for AUC(0-inf) / AUC(0-t) / Cmax / Tmax / half-life: dog, in vivo, oral, capsule, 5 mg/kg as compound of Formula (II)
Procedure: The pharmacokinetic properties of the compound of Formula (II) and crystalline form I of the invention were assessed in beagle dogs: each group having 3 beagle dogs was administered by oral in a capsule form. The dosage amount of crystalline form I was converted and determined according to the compound of Formula (II) at a dosage of 5 mg/kg.

[2] = Accelerated test (40±2° C./75%±5% RH, six months); assay type: physicochemical; details: for Impurities (total impurities, %) / Moisture (%): 40±2° C./75%±5% RH
Procedure: (§1) The purity of the compound used in the stability test or accelerated test is measured by Aglient 1200 high performance liquid chromatography with VWD detector. The chromatographic column model is ZORBAX Extend-C18 (4.6×150 mm, […]), the detection wavelength is 250 nm, the flow rate is 1.0 mL/min, the column temperature is 40° C., and the mobile phase is 10 mM KH2PO4 (pH=7.5)-acetonitrile (v/v=55/45).
According to “Guidelines for the stability test of raw materials and preparations” (Chinese Pharmacopoeia, 2015, 4th edition, general rules 9001), the accelerated test of crystalline form I was practiced as follows:
Medicinal low density polyethylene bag (the size was 140*120*0.104 mm^3, the manufacture was Tianjin Litian Medicine Packing Material Co., Ltd, and the batch number was 121238.) was used as inner package material, and the bag was sealed by nylon cable ties; and paper tube was used as a packaging material. The packaged samples were placed in a constant temperature and humidity test chamber (40±2° C./75%±5% RH) for six months for accelerated test. Sampling at the end of 1, 2, 3 or 6 months for testing the moisture content of the sample by using karl fischer titration, the content of impurities was measured by HPLC.

[3] = Hygroscopic test (Chinese Pharmacopoeia 2010, appendix XIX J); assay type: physicochemical; details: 25° C.±1° C., relative humidity 80%±2%, 24 h; for Hygroscopic weight gain: dimethanesulfonate monohydrate
Text: 1. Instruments: one hundred thousandth electronic balance, type: XP205DR, manufacturer: Mettler.
2. Test method deriving from Chinese Pharmacopoeia 2010, appendix XIX J: Guideline on pharmaceutical hygroscopic test. Specific method is described as follows:
1) Placing a dried glass-stoppered, weighing bottle (outer diameter: 50 mm, height: 15 mm) in a thermostatic drier with saturated aqueous ammonium chloride or ammonium sulfate solution in the bottom at the previous day of the test maintaining the temperature at 25° C.±1° C., and the glass-stoppered, weighing bottle was weighed precisely.
2) Taking and weighing an appropriate amount of the sample (m1), and placing the sample into the weighing bottle with thickness of about 1 mm.
3) Opening the weighing bottle, and placing the glass stopper with the opened weighing bottle in a constant temperature and humidity condition for 24 h.
4) Sealing the weighing bottle with glass stopper, and the weighing bottle sealed with glass stopper was weighed precisely (m2). The percentage (%) of weight gain was calculated. Percentage (%) of weight gain=(m2−m1−m0)/m1×100%
5) The hygroscopic features and definition of hygroscopic weight gain are summarized in table 3 (deriving from Chinese Pharmacopoeia 2010, appendix XIX J: Guideline on pharmaceutical hygroscopic test, test conditions: 25° C.±1° C., Relative Humidity 80%±2%).

[4] = Stability test (high temperature, high humidity, illumination); assay type: physicochemical
Procedure: as §1
According to “Guidelines for the stability test of raw materials and preparations” (Chinese Pharmacopoeia, 2015, 4th edition, general rules 9001), the stability of crystalline form I was tested as follows:
Appropriate amount of sample was taken into the flat weighing bottle to form a thin layer of no more than 5 mm thick. […] The content of impurities was tested by HPLC.

[5] = oral capsule, individual data analysis

EGFR, sequence (P00533 25-1210, species assumed): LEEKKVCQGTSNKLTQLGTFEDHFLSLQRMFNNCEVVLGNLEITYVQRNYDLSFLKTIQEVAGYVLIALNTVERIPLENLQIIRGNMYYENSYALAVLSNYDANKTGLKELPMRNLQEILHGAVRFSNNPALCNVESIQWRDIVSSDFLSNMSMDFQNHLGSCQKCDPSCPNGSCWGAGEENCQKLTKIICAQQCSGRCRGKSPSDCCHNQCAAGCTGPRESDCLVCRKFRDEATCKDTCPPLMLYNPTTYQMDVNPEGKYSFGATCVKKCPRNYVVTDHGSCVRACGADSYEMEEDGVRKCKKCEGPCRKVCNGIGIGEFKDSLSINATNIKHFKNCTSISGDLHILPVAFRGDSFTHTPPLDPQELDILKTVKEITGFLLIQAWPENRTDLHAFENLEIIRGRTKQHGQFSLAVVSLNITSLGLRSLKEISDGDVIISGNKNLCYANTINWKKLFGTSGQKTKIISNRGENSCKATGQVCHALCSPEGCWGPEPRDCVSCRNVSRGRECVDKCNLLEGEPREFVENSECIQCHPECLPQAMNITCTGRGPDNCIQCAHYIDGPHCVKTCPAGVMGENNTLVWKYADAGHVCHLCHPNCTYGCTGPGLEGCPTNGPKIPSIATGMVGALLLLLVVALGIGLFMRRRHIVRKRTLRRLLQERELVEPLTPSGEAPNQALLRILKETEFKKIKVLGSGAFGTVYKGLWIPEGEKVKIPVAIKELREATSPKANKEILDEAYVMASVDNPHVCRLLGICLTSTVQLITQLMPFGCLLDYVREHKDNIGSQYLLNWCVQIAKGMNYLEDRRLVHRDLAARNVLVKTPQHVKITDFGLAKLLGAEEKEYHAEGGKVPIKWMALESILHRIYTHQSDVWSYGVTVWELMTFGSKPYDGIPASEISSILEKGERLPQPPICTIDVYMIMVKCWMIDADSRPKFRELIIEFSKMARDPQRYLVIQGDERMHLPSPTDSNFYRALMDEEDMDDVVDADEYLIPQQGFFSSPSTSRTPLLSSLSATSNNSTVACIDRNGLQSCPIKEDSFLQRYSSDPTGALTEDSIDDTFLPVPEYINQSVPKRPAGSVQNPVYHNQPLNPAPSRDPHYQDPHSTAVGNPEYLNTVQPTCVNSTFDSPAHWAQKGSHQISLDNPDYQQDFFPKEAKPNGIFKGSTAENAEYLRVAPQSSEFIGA

COc1cc2ncnc(Nc3ccc(F)c(Cl)c3)c2cc1OCCCN1C[C@@H]2OCCO[C@@H]2C1 [Compound of Formula (II), 4-[(3-chloro-4-fluorophenyl)amino]-7-methoxy-6-[3-[(1R,6S)-2,5-dioxa-8-azabicyclo [4.3.0]nonan-8-yl]propoxy]quinazoline]
inhibition activity against EGFR (EGFR): high inhibition activity
AUC(0-inf) [1]: 886 ng·h/mL
AUC(0-t) [1]: 825 ng·h/mL
Cmax [1]: 125 ng/mL
Tmax [1]: 1.67 h
half-life [1]: 3.62 h

COc1cc2ncnc(Nc3ccc(F)c(Cl)c3)c2cc1OCCCN1C[C@@H]2OCCO[C@@H]2C1.CS(=O)(=O)O.CS(=O)(=O)O.O [Crystalline form I, 4-[(3-chloro-4-fluorophenyl)amino]-7-methoxy-6-[3-[(1R,6S)-2,5-dioxa-8-azabicyclo[4.3.0]nonan-8-yl]propoxy]quinazoline dimethanesulfonate monohydrate]
Impurities (total impurities, %) ([2]; 0 day): 0.18%
Moisture (%) ([2]; 0 day): 2.79%
Impurities (total impurities, %) ([2]; One month): 0.18%
Moisture (%) ([2]; One month): 2.92%
Impurities (total impurities, %) ([2]; Six months): 0.17%
Moisture (%) ([2]; Six months): 2.86%
Impurities (total impurities, %) ([2]; Three months): 0.18%
Moisture (%) ([2]; Three months): 3.09%
Impurities (total impurities, %) ([2]; Two months): 0.17%
Moisture (%) ([2]; Two months): 2.87%
quality (stability) ([2]; accelerated test condition for six months, low density polyethylene bag as inner package): stable
Hygroscopic feature [3]: almost no hygroscopicity
Hygroscopic weight gain [3]: 0.074%
Hygroscopic weight gain ([3]; listed as crystalline form I): 0.074%
Impurities (total impurities, %) ([4]; 0 day): 0.13%
Impurities (total impurities, %) ([4]; High humidity 25° C. ± 2° C./92.5% RH, 5 days): 0.14%
Impurities (total impurities, %) ([4]; High humidity 25° C. ± 2° C./92.5% RH, 10 days): 0.16%
Impurities (total impurities, %) ([4]; High temperature 60° C. ± 2° C., 5 days): 0.12%
Impurities (total impurities, %) ([4]; High temperature 60° C. ± 2° C., 10 days): 0.14%
Impurities (total impurities, %) ([4]; Illumination 4500 ± 500 lx, 5 days): 0.13%
Impurities (total impurities, %) ([4]; Illumination 4500 ± 500 lx, 10 days): 0.13%
Impurities (total impurities, %) ([4]; Illumination 4500 ± 500 lx, 15 days): 0.14%
change of impurity ([4]; high temperature 10 days, high humidity 10 days, illumination 15 days): no obvious change
quality (stability) ([4]; high temperature, high humidity or illumination condition): stable
AUC(0-inf) [1]: 1470 ng·h/mL
AUC(0-t) [1]: 1450 ng·h/mL
Cmax [1]: 231 ng/mL
Tmax [1]: 1.33 h
half-life [1]: 3.65 h
Tmax time compared with compound of Formula (II) ([1]; oral capsule): earlier than compound of Formula (II)
absorption compared with compound of Formula (II) [1, 5]: faster absorption
exposure level compared with compound of Formula (II) [1, 5]: higher exposure level
